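Briefly, cells in 96-well plates were exposed to five compound concentrations for 48 h, and endpoints were estimated by linear interpolation. The concentration for 50% growth inhibition is given as GI50. TGI marks complete inhibition of growth.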
Legend:
Assay in all cases: inhibition of tumour cell growth, NCI panel, 48 h
NCI-H23 lung = system: NCI-H23 lung
HCT-15 colon = system: HCT-15 colon
HCT-116 colon = system: HCT-116 colon
OVCAR-3 ovarian = system: OVCAR-3 ovarian
CCRF-CEM leukemia = system: CCRF-CEM leukemia
SF-539 CNS = system: SF-539 CNS
A498 renal = system: A498 renal
UO-31 renal = system: UO-31 renal
HL-60(TB) leukemia = system: HL-60(TB) leukemia

Structure (SMILES)	GI50 (NCI-H23 lung) [µM]	TGI (NCI-H23 lung) [µM]	GI50 (HCT-15 colon) [µM]	TGI (HCT-15 colon) [µM]	GI50 (HCT-116 colon) [µM]	TGI (HCT-116 colon) [µM]	GI50 (OVCAR-3 ovarian) [µM]	TGI (OVCAR-3 ovarian) [µM]	GI50 (CCRF-CEM leukemia) [µM]	TGI (CCRF-CEM leukemia) [µM]	GI50 (SF-539 CNS) [µM]	TGI (SF-539 CNS) [µM]	GI50 (A498 renal) [µM]	TGI (A498 renal) [µM]	GI50 (UO-31 renal) [µM]	TGI (UO-31 renal) [µM]	GI50 (HL-60(TB) leukemia) [µM]	TGI (HL-60(TB) leukemia) [µM]
COc1ccc2c(c1)CCC1C2CC[C@]2(C)/C(=N/OC(=O)Cc3ccccc3)CCC12 (stereo partly specified)	16.2	32.7	18	36.3	13.4	26.2	15.8	31	13.6	49.9	21.4	42.8	21.6	45.8	19.2	43.8		
NS(=O)(=O)c1ccc(N2N=C3c4ccccc4CC3C2c2ccc(Cl)cc2)cc1 (stereo unspecified)	11.4	34.8	18.2	38.3	6.04	> 100	17.3	34.7	6.48	42.4	9.07	30.8	2.55	6.6	7.88	23.8		
COc1ccc([N+](=O)[O-])c(S(=O)(=O)c2ccc(Cl)cc2)n1	4.58	29.2	2.05	5.22	2.9	9.33	2.34	5.31	2.93	13.8	3.39	12.3			2.97	10.2	6.8	41
Nc1c(C(=O)Nc2ccccc2Cl)sc2nc3c(cc12)CCCCCC3	8.83	> 100	1.59	> 100	1.95	6.6	3.23	12.7			2.65	8.12	7.73	> 100	2.19	5.01	2.73	> 100
COc1cc2nc(Nc3cccc(F)c3)nc(Nc3cc(C)[nH]n3)c2cc1OC	1.69	3.27	1.22	2.72			1.82	3.41	1.11	> 100	1.78	3.18			1.77	3.29	1.93	4.46
C=C1C(=O)O[C@H]2[C@H]1CC/C(COC(=O)NCc1c[nH]c3ccc(Cl)cc13)=C\CC[C@@]1(C)O[C@@H]21	1.71	3.39	0.615	1.95	1.27	2.61	1.11	2.7	0.341	1.88	1.58	3.04	1.81	4.68	1.43	2.75		
Cc1nc(NC(=O)CCCN2C(=O)c3cccc4cccc(c34)C2=O)sc1C(=O)Nc1cc(C(=O)NCCCN(C)C)n(C)c1	> 100	> 100	> 100	> 100	> 100	> 100	> 100	> 100			> 100	> 100	> 100	> 100	> 100	> 100	> 100	> 100
C=C(C)[C@@H]1CC[C@]2(C)[C@H](CC[C@@H]3[C@H]4[C@H]5OC[C@@]4(CCC5(C)C)CC[C@]32C)[C@@]1(C)CCCN	1.77	3.53	1.59	2.99			1.68	3.07	2.44	> 100	1.78	3.22	1.72	3.12	1.42	2.76		
COc1ccc2c(c1)CC[C@@H]1[C@@H]2CC[C@]2(C)C(c3ccco3)=C(C=O)C[C@@H]12	12.7	69.4	4.19	26.7	2.95	12.8	2.08	12.4	1.86	4.85	20	40.6	26.1	64.8	31	> 100		
COc1ccc(/C(C)=N/OC(=O)c2c(-c3ccccc3Cl)noc2C)cc1CN1CCOCC1		> 100		> 100		36.5		68.4		> 100		56.7				22.3		56.1
Nc1ccc(/C=N/Nc2ccnc3c(N)cccc23)c2cccnc12			1.34	2.9	0.401	1.85	1.63	3.16	0.316	2.31	1.74	3.15	1.79	3.3				
CCOC(=O)c1sc(=S)c2c(C(=O)OCC)c(C(=O)OCC)sc2c1C(=O)OCC	17.4	35.5	14.4	28.5	18	40	16	68	19.1	61.7	18.9	36.1	18.2	33.9	15.1	30.9		

— PubChem BioAssay (NCI)
